In one assay the target is FKBP12 (Homo sapiens (Human), UniProt P62942). Description: SPR assay to determine binding affinity to FKBP12 (direct binding). The conditions noted are these: immobilized biotinylated avi-FKBP12. The procedure:
SPR Assay to Determine Binding Affinity to FKBP12.
Biotinylated avi-FKBP12 was immobilized on a streptavidin chip (Cytiva Series S SA) using a Biacore 8K or 8 k+ (Cytiva). To achieve an immobilization level of 1000 RU, 2 μg/ml biotinylated avi-FKBP12 were injected for 100 sec at a flow rate of 10 μl/min. Rapalogs were diluted in DMSO to 100× working concentration. Each Rapalog was 100-fold diluted in 50 mM HEPES pH 7.5, 150 mM NaCl, 2 mM MgCl2, 1 mM DTT, 0.05% Tween-20 and a serial dilution prepared (9 concentrations, 3-fold dilutions, 0.08-500 nM). […] The compound dilutions were then injected at 100 uL/min for 120 seconds contact time in sequence with increasing concentrations. Dissociation was monitored for 3600 seconds. 50 mM HEPES pH 7.5, 150 mM NaCl, 2 mM MgCl2, 1 mM DTT, 0.05% Tween-20, 1% DMSO was used as running buffer. The single-cycle kinetics data were fit to a 1:1 binding model to measure the association rate ka (1/Ms), the dissociation rate kd (1/s) and the affinity Kd (M).
In general terms: SPR reads the build-up and loss of mass on a sensor chip optically.

For the next assay, the target named is FKBP51 (Homo sapiens (Human), UniProt Q13451). Kind of assay: SPR assay to determine binding affinity to FKBP51 (direct binding). The following applies: immobilized biotinylated avi-FKBP51. How it is done:
Example 29: SPR Assay to Determine Binding Affinity to FKBP51
Biotinylated avi-FKBP51 was immobilized on a streptavidin chip (Cytiva Series S SA) using a Biacore 8K or 8 k+ (Cytiva). To achieve an immobilization level of 2000 RU, 3 μg/ml biotinylated avi-FKBP51 were injected for 360 sec at a flow rate of 10 μl/min. Rapalogs were diluted in DMSO to 100× working concentration. Each Rapalog was 100-fold diluted in 50 mM HEPES pH 7.5, 150 mM NaCl, 2 mM MgCl2, 1 mM DTT, 0.05% Tween-20 and a serial dilution prepared (8 concentrations, 3-fold dilutions, 0.5-1000 nM). […] The compound dilutions were then injected at 100 uL/min for 120 seconds contact time and with 3600 seconds dissociation time with increasing concentrations. 50 mM HEPES pH 7.5, 150 mM NaCl, 2 mM MgCl2, 1 mM DTT, 0.05% Tween-20, 1% DMSO was used as running buffer. Multi-cycle kinetics data were fit to a 1:1 binding model to measure the association rate ka (1/Ms), the dissociation rate kd (1/s) and the affinity Kd (M).

In assay [1] the target is FKBP12 / FRB ternary complex (Homo sapiens (Human), UniProt P42345+P62942). Kind of assay: SPR assay to characterize ternary complex formation with FKBP12 (FRB binding to rapalog-saturated FKBP12). The following applies: FRB dilutions with 100 nM rapalog on immobilized FKBP12. How it is done:
Example 30: SPR Assay to Characterize Ternary Complex Formation with FKBP12
(§1) Biotinylated avi-FKBP12 was immobilized on a streptavidin chip (Cytiva Series S SA) using a Biacore 8K or 8 k+ (Cytiva). To achieve an immobilization level of 100 RU, 0.3 μg/ml biotinylated avi-FKBP12 were injected for 80 sec at a flow rate of 10 μl/min. Serial dilution of FRB was prepared (12 concentrations, 3-fold dilutions, 0.00011-20 μM) and supplemented with 100 nM of rapalog. A-B-A injection mode was used to ensure saturation immobilized FKBP12 with respective rapalog. 100 nM solution of the respective rapalog was injected before FRB injection for 120 sec and during dissociation for 420 sec. The FRB dilutions were then injected 120 seconds contact time with increasing concentrations. […] 50 mM HEPES pH 7.5, 150 mM NaCl, 2 mM MgCl2, 1 mM DTT, 0.05% Tween-20, 1% DMSO was used as running buffer at a flow rate of 30 μl/min. The multi-cycle kinetics data were fit to a 1:1 binding model to measure the association rate ka (1/Ms), the dissociation rate kd (1/s) and the affinity Kd (M). In case of fast association and dissociation, steady state affinity analysis following the law of mass action was used to determine the affinity Kd (M).

Assay [2] deals with FKBP51 / FRB ternary complex (Homo sapiens (Human), UniProt P42345+Q13451). Description: SPR assay to characterize ternary complex formation with FKBP51 (FRB binding to rapalog-saturated FKBP51). The following applies: FRB dilutions with 100 nM rapalog on immobilized FKBP51. The procedure: Example 31: SPR Assay to Characterize Ternary Complex Formation with FKBP51
as §1, with “Biotinylated avi-FKBP51” for “Biotinylated avi-FKBP12”, “of 200” for “of 100”, “RU, 0.6” for “RU, 0.3”, “biotinylated avi-FKBP51” for “biotinylated avi-FKBP12”, “for 150” for “for 80”

The next assay deals with mTORC1 (Homo sapiens (Human), UniProt P42345+P62942). Description: mTORC1 inhibition, AlphaLISA of Phospho-p70 S6 kinase (p70S6K pT389) in PC-3 cells. The conditions noted are these: inhibition of p70S6K pT389 levels. Type of assay: cell-based. (Alpha assays give light when donor and acceptor beads are brought close together.)
In a further assay the target is mTORC2 (Homo sapiens (Human), UniProt P42345+P62942). Kind of assay: mTORC2 inhibition, AlphaLISA of Phospho-AKT (pAKT pS473) in PC3 cells. Type of assay: cell-based. How it is done: Example 32: mTORC1 Inhibition, mTORC2 Inhibition, Cell Lysis, AlphaLISA Experiments, and Data Analysis
mTORC2 inhibition was determined via analysis of phosphorylation level of Phospho-AKT (pAKT pS473) with the corresponding AlphaLISA kit (PerkinElmer, Alpha SF Ultra™ Multiplex p-AKT1/2/3(Ser473)/Total AKT1). PC3 cells were plated on 96 well plates in assay medium (DMEM: Ham's F12, basic (CLS Cell Lines Service GmbH, Cat #820400a), supplemented with additional 10% FBS at 1.20E+06 cells/mL and incubated over-night at 37° C., 5% CO2. On the following day, cells were treated with assay medium (10% FBS) containing increasing compound concentrations (12 points at 3-fold dilutions) and incubated for 6 hours at 37° C., 5% CO2. Thereafter, medium was aspirated and cells were rinsed with PBS. In the following, cells were treated with compound dilutions in starvation medium (DMEM: Ham's F12, basic; without FBS) for further 18 h at 37° C., 5% CO2. Then, immediately prior to cell lysis, cells were treated with 12% FBS for 15 min.
After performing experiments according to mTORC1 and mTORC2 protocols, cells were harvested in lysis buffer supplied with the AlphaLISA kits, additionally enriched with Roche cOmplete™ Protease Inhibitor Cocktail (Cat #CO-RO). Thus, cells were lysed using 50 μL of the lysis buffer and incubated for 60 min at 4° C. while shaking. After centrifugation at 4000 rpm for 5 min, experiments were performed according to the AlphaLISA manufacturer's protocol.
Ten microliters of cell lysates were mixed with the acceptor mix. After incubation for 2 h at room temperature, the donor mix was added. After additional incubation at room temperature for 2 hours, AlphaLISA signal was read on PHERAstar® FSX (BMG Labtech) with AlphaPLEX module.
EC50 values were calculated by ExcelFit standard algorithm.

Each structure is given as a SMILES string. Bounds are passed on as bounds.

From patent publication US11603377B2, “MTORC1 modulators and uses thereof” (Aeovian Pharmaceuticals, Inc., priority 2020, dated 2023) come the findings set out here.

Broadly, the Kd is the concentration at which binding is half-saturated. In general, IC50 refers to the concentration needed to halve the response being measured. Low values mean higher potency, high ones lower potency.

Sequence of FKBP12 (P62942 whole entry): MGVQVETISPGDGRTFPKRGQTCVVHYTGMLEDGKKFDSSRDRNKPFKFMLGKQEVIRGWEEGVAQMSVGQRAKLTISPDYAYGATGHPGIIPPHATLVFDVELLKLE
Sequence of FKBP51 (Q13451 whole entry): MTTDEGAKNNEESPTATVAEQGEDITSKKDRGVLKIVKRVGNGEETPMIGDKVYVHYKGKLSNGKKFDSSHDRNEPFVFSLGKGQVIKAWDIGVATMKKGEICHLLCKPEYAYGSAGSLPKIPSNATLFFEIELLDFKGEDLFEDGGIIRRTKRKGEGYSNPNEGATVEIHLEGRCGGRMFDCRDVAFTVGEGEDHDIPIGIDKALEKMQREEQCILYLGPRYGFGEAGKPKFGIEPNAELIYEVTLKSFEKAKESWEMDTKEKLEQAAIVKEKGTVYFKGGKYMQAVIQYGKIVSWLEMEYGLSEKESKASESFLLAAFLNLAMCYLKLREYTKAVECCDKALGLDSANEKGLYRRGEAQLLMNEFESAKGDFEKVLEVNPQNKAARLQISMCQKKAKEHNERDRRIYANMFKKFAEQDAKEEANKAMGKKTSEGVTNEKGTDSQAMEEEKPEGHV

On to `COCCS(=O)(=O)NC1CC2CCC(C)C(O)(O2)C(=O)C(=O)N2CCCCC2C(=O)OC(C(C)CC2CCC(OCCO)C(OC)C2)CC(=O)C(C)C=C(C)C(O)C(OC)C(=O)C(C)CC(C)C=CC=CC=C1C` (mixture of isomers) [Compound 16], for which the dissociation constant Kd at FKBP12 is < 0.0003 µM; on FKBP51, 0.01 to 0.1 µM; in assay [1], 0.3 to 0.8 µM; in assay [2] it was > 0.8 µM. The compound also came in with an IC50 against mTORC1 of 0.0001 to 0.0008 µM. Also, the “mTORC2 % inhibition at 1 uM” value on mTORC2 is “B (B>20% and less than 40% inhibition at 1 uM)”.
As for `COCCS(=O)(=O)NC1CC2CCC(C)C(O)(O2)C(=O)C(=O)N2CCCCC2C(=O)OC(C(C)CC2CCC(OCCCS(C)(=O)=O)C(OC)C2)CC(=O)C(C)C=C(C)C(O)C(OC)C(=O)C(C)CC(C)C=CC=CC=C1C` (mixture of isomers) [Compound 17], the Kd was < 0.0003 µM at FKBP12, 0.01 to 0.1 µM on FKBP51, 0.3 to 0.8 µM in assay [1] and > 0.8 µM in assay [2]. Besides, the IC50 on mTORC1 lay within 0.0001 to 0.0008 µM. For the same compound, the “mTORC2 % inhibition at 1 uM” value at mTORC2 is recorded as “A (A ≤20% inhibition at 1 micro Molar (uM))”.
`COCCS(=O)(=O)NC1CC2CCC(C)C(O)(O2)C(=O)C(=O)N2CCCCC2C(=O)OC(C(C)CC2CCC(O)C(OC)C2)CC(=O)C(C)C=C(C)C(O)C(OC)C(=O)C(C)CC(C)C=CC=CC=C1C` (mixture of isomers) [Compound 24]: the Kd on FKBP12 was < 0.0003 µM; on FKBP51, 0.01 to 0.1 µM; in assay [1], 0.3 to 0.8 µM; in assay [2], 0.3 to 0.8 µM. On mTORC1, this compound yielded an IC50 of 0.0001 to 0.0008 µM. In addition, the “mTORC2 % inhibition at 1 uM” value on mTORC2 is on record as “A (A ≤20% inhibition at 1 micro Molar (uM))”.
Regarding `COCCOCCOC1CC2CCC(C)C(O)(O2)C(=O)C(=O)N2CCCCC2C(=O)OC(C(C)CC2CCC(OCCCS(C)(=O)=O)C(OC)C2)CC(=O)C(C)C=C(C)C(O)C(OC)C(=O)C(C)CC(C)C=CC=CC=C1C` (mixture of isomers) [Compound 65], the Kd at FKBP12 was < 0.0003 µM; at FKBP51, 0.01 to 0.1 µM; in assay [1], 0.3 to 0.8 µM; in assay [2] it was > 0.8 µM. Moreover, the 50% inhibitory concentration (IC50) against mTORC1 was in the range of 0.0001 to 0.0008 µM. For the same compound, the “mTORC2 % inhibition at 1 uM” value on mTORC2 is “A (A ≤20% inhibition at 1 micro Molar (uM))”.
With `COCCOCCOCCOC1CC2CCC(C)C(O)(O2)C(=O)C(=O)N2CCCCC2C(=O)OC(C(C)CC2CCC(OCCCS(C)(=O)=O)C(OC)C2)CC(=O)C(C)C=C(C)C(O)C(OC)C(=O)C(C)CC(C)C=CC=CC=C1C` (mixture of isomers) [Compound 66], the Kd on FKBP12 is 0.0003 to 0.001 µM; on FKBP51, 0.01 to 0.1 µM; in assay [1], > 0.8 µM; in assay [2], > 0.8 µM. Also, the IC50 against mTORC1 fell in the range of 0.0001 to 0.0008 µM. For the same compound, at mTORC2, the “mTORC2 % inhibition at 1 uM” value is on record as “A (A ≤20% inhibition at 1 micro Molar (uM))”.
`COCCOCCS(=O)(=O)NC1CC2CCC(C)C(O)(O2)C(=O)C(=O)N2CCCCC2C(=O)OC(C(C)CC2CCC(OCCCO)C(OC)C2)CC(=O)C(C)C=C(C)C(O)C(OC)C(=O)C(C)CC(C)C=CC=CC=C1C` (stereo not drawn) [Compound 2]: the Kd on FKBP12 is < 0.0003 µM; at FKBP51, 0.01 to 0.1 µM; in assay [1], < 0.3 µM; in assay [2], 0.3 to 0.8 µM. Moreover, at mTORC1, the IC50 is < 0.0001 µM. In addition, the “mTORC2 % inhibition at 1 uM” value on mTORC2 was “A (A ≤20% inhibition at 1 micro Molar (uM))”.
For the compound `COCCOCCS(=O)(=O)NC1CC2CCC(C)C(O)(O2)C(=O)C(=O)N2CCCCC2C(=O)OC(C(C)CC2CCC(OCCCO)C(OC)C2)CC(=O)C(C)C=C(C)C(O)C(OC)C(=O)C(C)CC(C)C=CC=CC=C1C` (stereo not drawn) [Compound 3], the Kd at FKBP12 was 0.0003 to 0.001 µM; on FKBP51, > 0.1 µM; in assay [1] it was > 0.8 µM; in assay [2] it was > 0.8 µM. Moreover, the half-inhibitory concentration (IC50) on mTORC1 is > 0.0008 µM. On mTORC2, the “mTORC2 % inhibition at 1 uM” value is listed as “A (A ≤20% inhibition at 1 micro Molar (uM))”.
With `CO[C@@H]1C[C@H](C[C@@H](C)[C@@H]2CC(=O)[C@H](C)/C=C(\C)[C@@H](O)[C@@H](OC)C(=O)[C@H](C)C[C@H](C)/C=C/C=C/C=C(\C)[C@H](NS(=O)(=O)CC3CCOCC3)C[C@@H]3CC[C@@H](C)[C@@](O)(O3)C(=O)C(=O)N3CCCC[C@H]3C(=O)O2)CC[C@H]1O` [Compound 5], the Kd is < 0.0003 µM on FKBP12, 0.01 to 0.1 µM at FKBP51, > 0.8 µM in assay [1] and > 0.8 µM in assay [2]. For the same compound, the IC50 at mTORC1 is 0.0001 to 0.0008 µM. Moreover, at mTORC2, the “mTORC2 % inhibition at 1 uM” value is “A (A ≤20% inhibition at 1 micro Molar (uM))”.
As to `CO[C@@H]1C[C@H](C[C@@H](C)[C@@H]2CC(=O)[C@H](C)/C=C(\C)[C@@H](O)[C@@H](OC)C(=O)[C@H](C)C[C@H](C)/C=C/C=C/C=C(\C)[C@@H](NS(=O)(=O)CC3CCOCC3)C[C@@H]3CC[C@@H](C)[C@@](O)(O3)C(=O)C(=O)N3CCCC[C@H]3C(=O)O2)CC[C@H]1O` [Compound 6], the Kd on FKBP12 is < 0.0003 µM; on FKBP51, < 0.01 µM; in assay [1] it was > 0.8 µM; in assay [2], > 0.8 µM. Further, on mTORC1, the IC50 fell in the range of 0.0001 to 0.0008 µM. Besides, on mTORC2, the “mTORC2 % inhibition at 1 uM” value is “A (A ≤20% inhibition at 1 micro Molar (uM))”.
